Data taken from patent US20090312373A1, “METHODS FOR THE TREATMENT OF CANCER USING PIPERLONGUMINE AND PIPERLONGUMINE ANALOGS” (The General Hospital Corporation, priority 2008, published 2009).

Columns and labels:
human cancer cell lines [1] = test: SRB (Sulforhodamine B) staining assay in human cancer cell lines; format: cell-based
Description: The tumor growth inhibitory effect of piperlongumine was evaluated in a variety of human cancer cell lines. Cells were grown in ˜50-70% confluency and treated with piperlongumine and known anti-cancer agents at various concentrations (0.1-30 μM) and analyzed for cell death or viability by SRB (Sulforhodamine B) staining assay. The SRB assay is a well established assay that is used for the detection of cell death, viability or proliferation in drug screening.

CDIP [2] = test: CDIP expression in HCT116 cells; format: cell-based, human; conditions: 5 μM and 10 μM
Description: U2OS cells and EJ cells were exposed to piperlongumine (10 μM) and aliquots of the cells were taken at 6 and 12 hours and lysed to determine the level of Twist expression. […] HCT116 cells (p53-wt cells) were exposed to piperlongumine and aliquots of the cells were taken at 6 and 12 hours and lysed to determine the level of CDIP expression. […] U2OS cells (p53-wt cells) and EJ cells (non-functional p53) were exposed to various concentrations of piperlongumine (piper) and aliquots of the cells were lysed to determine the level of survival protein expression.

MMTV-PyVT mammary tumor = test: MMTV-PyVT spontaneous mammary tumor mouse model; format: in vivo
Text: MMTV-PvVT (FVB/N-Tg) transgenic mice develop multifocal mammary tumor (from hyperplasia to metastatic) with a high incidence of metastasis (Mice were obtained from the NCI repository). This mouse model has been widely used for the correlation studies of human cancer (Guy et al., Moll. Cell. Biol. 12: 954-961, 1992). In addition, this onco-mouse model has been used to evaluate the effectiveness of potential drug therapies. Generally, due to aggressiveness of tumor growth and spread in this mouse-model, only a combination of chemo-drugs is effective in tumor growth inhibition. MMTV-PyVT mice were maintained until mammary tumor size reached to 6 mm, and then piperlongumine (2.4 mg/kg) or vehicle (DMSO) was given daily by i.p. for 13 days. Tumor size was measured every 4 days (See FIGS. 31 and 32).
We compared the anti-tumor activity of piperlongumine (SP2007) with taxol, a well known chemo drug, in the MMTV-PyVT tumor mouse model as described above (8 mice per group). When tumor sizes grew to ˜5-6 mm in diameter, SP2007 (2.4 mg/kg/day) or Taxol (Paclitaxel, 10 mg/kg/day) was administered intraperitoneally (I.P.) daily for two weeks. After two weeks treatment, mice were sacrificed, and mammary tumors excised and the tumor sizes measured. […] The size of the grossly dissected tumors was measured using the formula: mean diameter=(A+B)/2.

[3] = tested on: EJ Human Bladder Carcinoma Cells; test: Angiogenesis in EJ bladder carcinoma tumor bearing nude mice; format: in vivo, mouse; conditions: 1.5 mg/kg i.p. every two days for 2.5 weeks
Description: EJ Human Bladder Carcinoma Cells (10^6 Cells) were Subcutaneously Transplanted into the back of the skin of immunodeficient nude mice (total 16 mice). After 2 weeks (tumor sizes of approximately 8-10 mm), piperlongumine (SP2007; 1.5 mg/kg) or vehicle (10% DMSO) was injected into tumor bearing mice by i.p. every two days for 2.5 weeks. The effect of piperlongumine was evaluated by opening the tumor site.

[4] = tested on: patient-derived breast cancer tumor samples; test: Histoculture Drug Response Assay (HDRA), breast; format: cell-based, human
Text: Piperlongumine (SP2007) was compared to a variety of known anti-cancer agents in a Histoculture Drug Response Assay (HDRA). HDRA is an assay that provides a reliable approach to determine the profile of in vivo chemo-sensitivity in cancer patients. The assay allows for a three-dimensional culture, the testing of patient tumor sensitivity, the evaluation of treatment option for individual patients with solid tumor types and a high correlation to clinical drug sensitivity (Flowers J L et al., Cancer Chemother. Pharmacol. 2003 September 52 (3): 253-261). The assays were performed by Anti-cancer Inc., (San Diego, Calif.). An average of twenty samples was tested for each tumor type.

[5] = tested on: normal human breast epithelial cells; test: DNA damage markers in normal human breast epithelial cells; format: cell-based; conditions: SP2007 10 μM or 20 μM
Text: The primary breast epithelial cells obtained from patients undergoing reconstructive plastic surgery.

[6] = tested on: EJ bladder carcinoma and U2OS osteosarcoma cell lines; test: DNA damage in EJ bladder carcinoma and U2OS osteosarcoma cell lines; format: cell-based, human
Text: The conditions and time of exposure are indicated in the legend of the figure.

CDIP [7] = test: Western blot of CDIP expression in U2OS cells containing wt-p53; format: cell-based, human; conditions: 5 μM and 10 μM
Description: Western blot analyses of CDIP expression in human cancer cells containing wt-p53 treated with piperlongumine (SP2007) (5 μM and 10 μM) is shown in FIG. 38. Beta-actin expression was used as a loading control.

human cancer cell lines [8] = test: Cell growth inhibition and cell death/apoptosis in a panel of human cancer cell lines; format: cell-based
Text: We evaluated the ability of piperlongumine to induce apoptosis in a panel of human cancer cells (>40 human cancer cell lines) including cell lines with both wt and mutant p53 status, including non-functional mutants (See Table 1).

miRNA-10b = test: miRNA microarray analysis in U2OS and EJ cells; format: cell-based, human; design: dose or concentration left out as unconfirmed; conditions: 0, 6 and 24 hrs
Description: U2OS cells and EJ cells were treated with piperlongumine ([…]) and total RNA was extracted after 0, 6 and 24 hrs using miRNeasy Mini Kit (Qiagen, Germantown, Md.) according to the manufacturer's instructions. The miRNA microarray analysis was done by LC Sciences (Houston, Tex.). Total RNA (10 μg) was size fractionated (<200 nucleotides) by using a mirVana kit (Ambion, Austin, Tex.) and labeled with Cy3 or Cy5 fluorescent dyes. Dye switching was done to eliminate the dye bias. Pairs of labeled samples were hybridized to dual-channel microarrays. Microarray assays were done on a μParaFlo microfluidics chip with each of the detection probes containing a nucleotide sequence of coding segment complementary to a specific miRNA sequence and a long non-nucleotide molecule spacer that extended the detection probe away from the substrate. miRNA detection signal threshold was defined as twice the maximum background signal. The maximum signal level of background probes was 180. Normalization was done using a cyclic LOWESS (locally weighted regression) method to remove the system-related variations. Data adjustments included data filtering, log2 transformation, and gene centering and normalization (Analysis performed at LCScience). The t-test analysis was conducted between treated and non-treated and U2OS and EJ samples, and miRNA with P values<0.05 were selected for cluster analysis. […]

[9] = 2.4 mg/kg daily i.p. for 13 days

COc1cc(/C=C/C(=O)N2CCC=CC2=O)cc(OC)c1OC [piperlongumine, N-(3,4,5,-trimethoxycinnamoyl)-Δ^3-piperidine-2-one]
tumor cell growth inhibition compared to known anti-cancer drugs (human cancer cell lines [1]; 0.1-30 μM, variety of human cancer cell lines): as well as or better than other well-known anti-cancer drugs
cell growth (human cancer cell lines [1]; glioblastoma cell lines): inhibits cell growth
cell growth (human cancer cell lines [1]; human melanoma and ovarian cancer cell lines): inhibits cell growth
cell growth (human cancer cell lines [1]; human renal cancer cell lines): inhibits cell growth
CDIP expression (CDIP [2]): induces the expression of CDIP
multiple tumor growth in spontaneous tumor model (MMTV-PyVT mammary tumor; [9]): inhibits multiple tumor growth
tumor growth in spontaneous mouse model of breast cancer (MMTV-PyVT mammary tumor; [9]): inhibits tumor growth
anti-tumor effect (mammary tumor size) (MMTV-PyVT mammary tumor; 2.4 mg/kg/day i.p. daily for two weeks, compared to DMSO): Significant anti-tumor effects
health of mice during treatment (MMTV-PyVT mammary tumor; SP2007 2.4 mg/kg/day i.p. for two weeks): remained healthy throughout the treatment time
secondary tumors (MMTV-PyVT mammary tumor; SP2007 2.4 mg/kg/day or Taxol 10 mg/kg/day i.p. for two weeks): No secondary tumors were observed
blood-vessel formation at the tumor sites [3]: did not show considerable blood-vessel formation
expression of angiogenic marker VEGF (immunohistochemistry) ([3]; compared to vehicle): significantly reduced
growth of patient-derived tumor samples [4]: inhibits growth
phosphorylated gamma-H2AX, p53 and p21 [5]: does not affect
DNA damage (phosphorylated gamma-H2AX levels) [6]: results in the induction of DNA damage
CDIP expression (CDIP [7]): induces CDIP
sub-G1 apoptotic population of cells (human cancer cell lines [8]; HCT116 cells): increased
potencies for tumor cell growth inhibition and cell death/apoptosis (human cancer cell lines [8]; various human cancer cells, regardless of p53 status): 2.5 to 20 µM
miRNA-10b (miRNA-10b): changes the induction of miRNA-10b
